Results as given in US20090239827A1, “COMPOUNDS HAVING LIPID LOWERING PROPERTIES” (priority 2005, published 2009).
Values joined by “and” are separate entries in the source; they are usually repeats but may differ in a detail not shown here. Identical values can stand only once.

Experiments:
APOE deficient mice [1] = assay: Example 2: plasma lipid levels in APOE deficient mice, compound in feed, induction and challenge phases; format: in vivo, mouse
Procedure: (§1) This example evaluated the effects of a tocopheryl phosphate mixture (TPm) (mono-tocopheryl phosphate and di-tocopheryl phosphate) on the development of atherosclerotic lesions in male APOE deficient mice.
(§2) Twenty-eight mice were divided into 4 groups: 2 control groups, a tocopherol acetate (TA) group (150 mg TA/kg feed) and a TPm group (200 mg TPm/kg feed containing 7% fat).
‘Induction phase’—The induction phase consisted of the first 16 weeks of the treatment period.
‘Challenge phase’—This phase consisted of the final 8 weeks of the treatment period.
The 4 groups of animals were placed on the diet regimes outlined in the table below:
Of the two control animal groups only one was placed on the SF04-055, HFHC diet, while the other control group was maintained on the SF05-040 mouse pellet diet (only 7% fat) for the entire treatment period 24 week treatment period (C24). […] TA treated mice were fed pellets with 150 mg TA/kg feed and TPm treated mice were fed the pellets with 200 mg TPm/kg feed. […] The 26 mg/kg TPm dose was calculated to be the tocopherol equivalent to the TA dose.

APOE deficient mice [2] = assay: Example 2: aortic atheromatous lesion area by Oil red O staining in APOE deficient mice; format: in vivo, mouse; conditions: end of the 24 week treatment period
Procedure: as §1, §2
‘Induction phase’—The induction phase consisted of the first 16 weeks of the treatment period. During this period the animals were fed a mouse pellet diet low in vitamin E (containing less than 20 mg vitamin E per kg food, with a 7% total fat; modified version of the standard AIN93G rodent diet (SF05-040, Specialty feeds, Glen Forrest, Wash. Australia). Control animals were fed the diet alone, while TA-feed contained 150 mg TA/kg feed and TPm-feed contained 200 mg TPm/kg feed. These feeds delivered on average doses of 21 and 26 mg/kg body weight, respectively. The 26 mg/kg TPm dose was calculated to be the tocopherol equivalence of the TA dose. […]
Of the two control animal groups only one was placed on the SF04-055, HFHC diet, while the other control group was maintained on the SF05-040 mouse pellet diet (only 7% fat) for the entire treatment period 24 week treatment period (C24). […] The 26 mg/kg TPm dose was calculated to be the tocopherol equivalent to the TA dose. […]

[3] = Challenge phase (HFHC diet), week 24, TA 150 mg/kg feed, TPm 200 mg/kg feed
[4] = Induction phase, week 16, TA 150 mg/kg feed, TPm 200 mg/kg feed

In the case of `CC(=O)Oc1c(C)c(C)c2c(c1C)CCC(C)(CCC[C@H](C)CCC[C@H](C)CCCC(C)C)O2` (stereo partly drawn) [TA, Tocopherol Acetate], the “LDL-C level (mean ± SD)” value (APOE deficient mice [1]; Baseline, week 0) is reported as 8.85 ± 1.66 mmol/L, the “total cholesterol level (mean ± SD)” value (APOE deficient mice [1]; Baseline, week 0) is reported as 12.75 ± 1.41 mmol/L and the “triglyceride level (mean ± SD)” value (APOE deficient mice [1]; Baseline, week 0) is reported as 1.75 ± 0.25 mmol/L. For the same compound, the “LDL-C level (mean ± SD)” value (APOE deficient mice [1]; [3]) was 18.98 ± 2.29 mmol/L, the “total cholesterol level (mean ± SD)” value (APOE deficient mice [1]; [3]) was 47.13 ± 4.44 mmol/L and the “triglyceride level (mean ± SD)” value (APOE deficient mice [1]; [3]) was 2.23 ± 0.29 mmol/L. The “LDL-C level (mean ± SD)” value (APOE deficient mice [1]; [4]) was 6.51 ± 0.71 mmol/L, the “total cholesterol level (mean ± SD)” value (APOE deficient mice [1]; [4]) was 14.47 ± 1.32 mmol/L and the “triglyceride level (mean ± SD)” value (APOE deficient mice [1]; [4]) was 1.30 ± 0.22 mmol/L. For the same compound, the “reduction in plasma lipid levels” value (APOE deficient mice [1]; after the challenge phase (week 24)) was “no significant reduction”, the “reduction in aortic lesion area / lesion formation compared to control mice on the same diet regime” value (APOE deficient mice [2]) was 12% and the “Atheromatous lesion area, % Lesion coverage (mean ± SD)” value (APOE deficient mice [2]; HFHC diet final 8 weeks) was 9.4% and 9.4 ± 1.1%.
